From ChEMBL document CHEMBL1909294, “Translating clinical findings into knowledge in drug safety evaluation--drug induced liver injury prediction system (DILIps)” (PLoS Comput Biol, 2011) come the findings set out here.

*1 amine or outer side, *2 acyl side, *3 side chain or, on linkers, in order; H or OH if unused. Where a SMILES comes first, the peptide text is derived from it. Bridges are numbered along the chain shown (N, C = ends). Roman numbers before positions name the chains, in order. [ ]: non-standard residue; d: D form. Actinocin(9to1) = Cc1c2oc3c(C)ccc(C(=O)[*:1])c3nc-2c(C(=O)[*:2])c(N)c1=O; NMeV = CN[C@H](C(=O)O)C(C)C; Sar = CNCC(=O)O

Data set [1] deals with Hepatotoxicity.
The subject of data set [2] is Hepatotoxicity. This is another data set of the same source.
Data set [3] has as its system Hepatotoxicity. This is another data set of the same source.
Data set [4] deals with Hepatotoxicity. This is another data set of the same source.
Data set [5] deals with Hepatotoxicity. This is another data set of the same source.
For data set [6], the system named is Hepatotoxicity. This is another data set of the same source.
For data set [7], the system named is Hepatotoxicity. The source holds these as a separate data set.
Data set [8] deals with Hepatotoxicity. This is another data set of the same source.
Data set [9] relates to Hepatotoxicity. This is another data set of the same source.
Data set [10] has as its system Hepatotoxicity. The source holds these as a separate data set.
Data set [11] concerns Hepatotoxicity. This is another data set of the same source.
Data set [12] deals with Hepatotoxicity. This is another data set of the same source.
The test system of data set [13] is Hepatotoxicity. This is another data set of the same source.
Data set [14] concerns Hepatotoxicity. The source holds these as a separate data set.
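Throughout, for HepSE Combined Scores: combined hepatic side effect score as listed in the training data of the Drug Induced Liver Injury Prediction System (DILIps).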
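Throughout, for HepSE bilirubinemia: bilirubinemia hepatic side effect score drawn from the DILIps training data, a prediction system for drug-induced liver injury; call rule not given here.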
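Throughout, for HepSE cholecystitis: Cholecystitis-related hepatic side effect score drawn from the DILIps (drug-induced liver injury prediction) training data set; call rule not given here.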
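Throughout, for HepSE cholelithiasis: hepatic side effect score for cholelithiasis, drawn from the DILIps training data for predicting drug-induced liver injury; call rule not given here.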
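Throughout, for HepSE cirrhosis: cirrhosis hepatic side effect score taken from the DILIps (drug-induced liver injury prediction) training set; call rule not given here.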
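Throughout, for HepSE elevated liver function tests: hepatic side effect score for raised liver function tests, as recorded in the DILIps training set used for predicting drug-induced liver injury.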
Throughout, for HepSE hepatic failure: call rule not given here.
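Throughout, for HepSE hepatic necrosis: score of hepatic side effects for hepatic necrosis, drawn from the training data of DILIps, a prediction system for drug-induced liver injury; call rule not given here.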
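Throughout, for HepSE hepatitis: Hepatitis-related hepatic side effect score taken from the training data of DILIps, a prediction system for drug-induced liver injury; call rule not given here.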
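Throughout, for HepSE hepatomegaly: hepatic side effect score for hepatomegaly, taken from the training set of the DILIps drug-induced liver injury prediction system; call rule not given here.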
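Throughout, for HepSE jaundice: Jaundice-related hepatic side-effect score drawn from the training data of the DILIps (drug-induced liver injury prediction system); call rule not given here.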
Throughout, for HepSE liver disease: call rule not given here.
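Throughout, for HepSE liver fatty: hepatic side effect score for fatty liver, taken from the DILIps training set for predicting drug-induced liver injury; call rule not given here.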
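Throughout, for HepSE liver function tests abnormal: hepatic side effect score taken from the DILIps (drug-induced liver injury prediction system) training data, here covering abnormal liver function test findings.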

In the data set with Hepatotoxicity [1], `NCCS` [CYSTEAMINE] registered a HepSE_bilirubinemia of 0. Also, the HepSE_cholecystitis in the data set with Hepatotoxicity [2] was determined as 0. Also, in the data set with Hepatotoxicity [3], the HepSE_cholelithiasis was determined as 0. This compound also came in with a HepSE_cirrhosis in the data set with Hepatotoxicity [4] of 0. Moreover, in the data set on Hepatotoxicity [5], the “HepSE_elevated liver function tests” value worked out at 0. In addition, in the data set with Hepatotoxicity [6], the HepSE_hepatic failure was 0. In the data set on Hepatotoxicity [7], this compound registered a HepSE_hepatic necrosis of 0. Moreover, the HepSE_hepatitis in the data set on Hepatotoxicity [8] was 0. In the data set with Hepatotoxicity [9], this compound registered a HepSE_hepatomegaly of 0. Moreover, in the data set on Hepatotoxicity [10], the HepSE_jaundice stood at 0. Further, the HepSE_liver disease with Hepatotoxicity [11] was found to be 0. In addition, the HepSE_liver fatty with Hepatotoxicity [12] came out at 0. For the same compound, the “HepSE_liver function tests abnormal” value in the data set on Hepatotoxicity [13] is recorded as 0. Moreover, in the data set with Hepatotoxicity [14], the “HepSE_Combined Scores” value came out at 0.

For the compound `Nc1ccn([C@@H]2O[C@H](CO)[C@@H](O)[C@@H]2O)c(=O)n1` [CYTARABINE], the HepSE_bilirubinemia with Hepatotoxicity [1] (Liver) is listed as 1. This compound had a HepSE_cholecystitis in the data set with Hepatotoxicity [2] (Liver) of 0. The compound further showed a HepSE_cholelithiasis in the data set on Hepatotoxicity [3] (Liver) of 0. Further, the HepSE_cirrhosis in the data set on Hepatotoxicity [4] (Liver) is 0. Further, the “HepSE_elevated liver function tests” value with Hepatotoxicity [5] (Liver) is 0. The compound also displayed a HepSE_hepatic failure with Hepatotoxicity [6] (Liver) of 0. In the data set on Hepatotoxicity [7] (Liver), this compound gave a HepSE_hepatic necrosis of 0. Moreover, the HepSE_hepatitis in the data set on Hepatotoxicity [8] (Liver) is reported as 0. Moreover, the HepSE_hepatomegaly in the data set on Hepatotoxicity [9] (Liver) is listed as 0. Besides, the HepSE_jaundice in the data set with Hepatotoxicity [10] (Liver) was 1. This compound also returned a HepSE_liver disease in the data set with Hepatotoxicity [11] (Liver) of 0. In the data set with Hepatotoxicity [12] (Liver), this compound returned a HepSE_liver fatty of 0. Further, the “HepSE_liver function tests abnormal” value in the data set with Hepatotoxicity [13] (Liver) is reported as 0. Also, in the data set with Hepatotoxicity [14] (Liver), the “HepSE_Combined Scores” value is listed as 2.

Take `C[C@@H](O)C(=O)O` [D-LACTIC ACID]: the HepSE_bilirubinemia in the data set on Hepatotoxicity [1] is on record as 0. The HepSE_cholecystitis with Hepatotoxicity [2] amounted to 0. This compound yielded a HepSE_cholelithiasis with Hepatotoxicity [3] of 0. This compound had a HepSE_cirrhosis with Hepatotoxicity [4] of 0. Further, in the data set with Hepatotoxicity [5], the “HepSE_elevated liver function tests” value was determined as 0. The HepSE_hepatic failure in the data set on Hepatotoxicity [6] amounted to 0. The same compound showed a HepSE_hepatic necrosis in the data set with Hepatotoxicity [7] of 0. In the data set with Hepatotoxicity [8], this compound yielded a HepSE_hepatitis of 0. The compound further gave a HepSE_hepatomegaly in the data set on Hepatotoxicity [9] of 0. In addition, the HepSE_jaundice in the data set with Hepatotoxicity [10] is on record as 0. This compound had a HepSE_liver disease with Hepatotoxicity [11] of 0. In the data set with Hepatotoxicity [12], this compound had a HepSE_liver fatty of 0. The “HepSE_liver function tests abnormal” value in the data set on Hepatotoxicity [13] was 0. The “HepSE_Combined Scores” value in the data set with Hepatotoxicity [14] was found to be 0.

The compound `CN(C)/N=N/c1[nH]cnc1C(N)=O` [DACARBAZINE] displayed a HepSE_bilirubinemia in the data set with Hepatotoxicity [1] of 0. The same compound yielded a HepSE_cholecystitis in the data set with Hepatotoxicity [2] of 0. The same compound yielded a HepSE_cholelithiasis in the data set on Hepatotoxicity [3] of 0. The compound also had a HepSE_cirrhosis in the data set on Hepatotoxicity [4] of 0. For the same compound, in the data set on Hepatotoxicity [5], the “HepSE_elevated liver function tests” value came to 0. Further, the HepSE_hepatic failure with Hepatotoxicity [6] is listed as 0. The same compound came in with a HepSE_hepatic necrosis in the data set with Hepatotoxicity [7] of 0. This compound also displayed a HepSE_hepatitis in the data set on Hepatotoxicity [8] of 0. In addition, the HepSE_hepatomegaly with Hepatotoxicity [9] is given as 0. This compound yielded a HepSE_jaundice in the data set with Hepatotoxicity [10] of 0. The compound further returned a HepSE_liver disease with Hepatotoxicity [11] of 0. In the data set on Hepatotoxicity [12], this compound displayed a HepSE_liver fatty of 0. Moreover, the “HepSE_liver function tests abnormal” value in the data set on Hepatotoxicity [13] worked out at 0. Further, the “HepSE_Combined Scores” value with Hepatotoxicity [14] turned out to be 0.

`Cc1c2oc3c(C)ccc(C(=O)N[C@@H]4C(=O)N[C@H](C(C)C)C(=O)N5CCC[C@H]5C(=O)N(C)CC(=O)N(C)[C@@H](C(C)C)C(=O)O[C@@H]4C)c3nc-2c(C(=O)N[C@@H]2C(=O)N[C@H](C(C)C)C(=O)N3CCC[C@H]3C(=O)N(C)CC(=O)N(C)[C@@H](C(C)C)C(=O)O[C@@H]2C)c(N)c1=O` [DACTINOMYCIN] (I: T[dV]P[Sar][NMeV] / II: T[dV]P[Sar][NMeV]; ester I:1-I:C, II:1-II:C; linker I:N-II:N via Actinocin(9to1)) returned a HepSE_bilirubinemia in the data set on Hepatotoxicity [1] of 0. The same compound returned a HepSE_cholecystitis in the data set on Hepatotoxicity [2] of 0. In addition, the HepSE_cholelithiasis in the data set on Hepatotoxicity [3] turned out to be 0. In the data set with Hepatotoxicity [4], this compound registered a HepSE_cirrhosis of 0. In addition, the “HepSE_elevated liver function tests” value in the data set on Hepatotoxicity [5] worked out at 0. In the data set on Hepatotoxicity [6], this compound gave a HepSE_hepatic failure of 1. Further, in the data set on Hepatotoxicity [7], the HepSE_hepatic necrosis amounted to 0. In addition, the HepSE_hepatitis in the data set on Hepatotoxicity [8] is given as 0. For the same compound, the HepSE_hepatomegaly in the data set on Hepatotoxicity [9] is listed as 0. This compound came in with a HepSE_jaundice in the data set on Hepatotoxicity [10] of 0. The same compound displayed a HepSE_liver disease with Hepatotoxicity [11] of 0. Also, the HepSE_liver fatty in the data set with Hepatotoxicity [12] is recorded as 0. In addition, the “HepSE_liver function tests abnormal” value in the data set with Hepatotoxicity [13] amounted to 0. Besides, the “HepSE_Combined Scores” value with Hepatotoxicity [14] came out at 1.

As for `C#C[C@]1(O)CC[C@H]2[C@@H]3CCC4=Cc5oncc5C[C@]4(C)[C@H]3CC[C@@]21C` [DANAZOL], the HepSE_bilirubinemia in the data set with Hepatotoxicity [1] is recorded as 0. Also, the HepSE_cholecystitis with Hepatotoxicity [2] is given as 0. The compound also gave a HepSE_cholelithiasis in the data set on Hepatotoxicity [3] of 0. For the same compound, the HepSE_cirrhosis in the data set with Hepatotoxicity [4] amounted to 0. Moreover, the “HepSE_elevated liver function tests” value with Hepatotoxicity [5] is on record as 0. The same compound registered a HepSE_hepatic failure with Hepatotoxicity [6] of 0. In the data set on Hepatotoxicity [7], this compound gave a HepSE_hepatic necrosis of 0. Further, the HepSE_hepatitis in the data set on Hepatotoxicity [8] stood at 0. In the data set with Hepatotoxicity [9], this compound returned a HepSE_hepatomegaly of 0. Further, the HepSE_jaundice in the data set on Hepatotoxicity [10] was 1. Besides, the HepSE_liver disease with Hepatotoxicity [11] is recorded as 0. This compound also yielded a HepSE_liver fatty in the data set on Hepatotoxicity [12] of 0. In the data set on Hepatotoxicity [13], the “HepSE_liver function tests abnormal” value worked out at 0. Also, in the data set on Hepatotoxicity [14], the “HepSE_Combined Scores” value is given as 1.

The compound `O=C1CN(/N=C/c2ccc(-c3ccc([N+](=O)[O-])cc3)o2)C(O)=N1` [DANTROLENE] showed a HepSE_bilirubinemia in the data set with Hepatotoxicity [1] of 0. The HepSE_cholecystitis in the data set with Hepatotoxicity [2] turned out to be 0. The compound further returned a HepSE_cholelithiasis with Hepatotoxicity [3] of 0. In the data set on Hepatotoxicity [4], this compound yielded a HepSE_cirrhosis of 0. Besides, the “HepSE_elevated liver function tests” value with Hepatotoxicity [5] was 0. Moreover, the HepSE_hepatic failure in the data set with Hepatotoxicity [6] is 1. Also, the HepSE_hepatic necrosis in the data set on Hepatotoxicity [7] is given as 0. Moreover, in the data set on Hepatotoxicity [8], the HepSE_hepatitis turned out to be 1. The HepSE_hepatomegaly with Hepatotoxicity [9] came out at 0. The compound also had a HepSE_jaundice with Hepatotoxicity [10] of 0. The same compound came in with a HepSE_liver disease in the data set with Hepatotoxicity [11] of 0. This compound also gave a HepSE_liver fatty with Hepatotoxicity [12] of 0. In addition, the “HepSE_liver function tests abnormal” value with Hepatotoxicity [13] was 0. Also, in the data set with Hepatotoxicity [14], the “HepSE_Combined Scores” value came out at 2.

`Nc1ccc(S(=O)(=O)c2ccc(N)cc2)cc1` [DAPSONE] had a HepSE_bilirubinemia in the data set with Hepatotoxicity [1] (Liver) of 0. This compound returned a HepSE_cholecystitis with Hepatotoxicity [2] (Liver) of 0. Also, the HepSE_cholelithiasis in the data set with Hepatotoxicity [3] (Liver) was 0. Further, the HepSE_cirrhosis in the data set with Hepatotoxicity [4] (Liver) stood at 0. In addition, the “HepSE_elevated liver function tests” value in the data set on Hepatotoxicity [5] (Liver) came to 0. The same compound registered a HepSE_hepatic failure in the data set on Hepatotoxicity [6] (Liver) of 0. Further, the HepSE_hepatic necrosis with Hepatotoxicity [7] (Liver) is on record as 0. The HepSE_hepatitis with Hepatotoxicity [8] (Liver) was determined as 0. In the data set with Hepatotoxicity [9] (Liver), this compound registered a HepSE_hepatomegaly of 0. The compound further gave a HepSE_jaundice in the data set with Hepatotoxicity [10] (Liver) of 0. In the data set on Hepatotoxicity [11] (Liver), this compound registered a HepSE_liver disease of 0. Moreover, the HepSE_liver fatty with Hepatotoxicity [12] (Liver) was 0. Further, the “HepSE_liver function tests abnormal” value in the data set with Hepatotoxicity [13] (Liver) was determined as 0. Besides, the “HepSE_Combined Scores” value in the data set with Hepatotoxicity [14] (Liver) turned out to be 0.

As for `NC(=O)C(c1ccccc1)(c1ccccc1)[C@@H]1CCN(CCc2ccc3c(c2)CCO3)C1` [DARIFENACIN], the HepSE_bilirubinemia with Hepatotoxicity [1] is on record as 0. The HepSE_cholecystitis in the data set on Hepatotoxicity [2] was found to be 0. This compound registered a HepSE_cholelithiasis in the data set on Hepatotoxicity [3] of 0. The HepSE_cirrhosis in the data set with Hepatotoxicity [4] worked out at 0. In the data set on Hepatotoxicity [5], the “HepSE_elevated liver function tests” value is listed as 0. The compound also returned a HepSE_hepatic failure in the data set with Hepatotoxicity [6] of 0. In the data set with Hepatotoxicity [7], this compound had a HepSE_hepatic necrosis of 0. The compound further gave a HepSE_hepatitis with Hepatotoxicity [8] of 0. The same compound yielded a HepSE_hepatomegaly in the data set on Hepatotoxicity [9] of 0. The HepSE_jaundice with Hepatotoxicity [10] turned out to be 0. In the data set with Hepatotoxicity [11], this compound had a HepSE_liver disease of 0. In the data set with Hepatotoxicity [12], this compound had a HepSE_liver fatty of 0. For the same compound, the “HepSE_liver function tests abnormal” value in the data set on Hepatotoxicity [13] was determined as 0. For the same compound, the “HepSE_Combined Scores” value in the data set with Hepatotoxicity [14] was 0.
